Reference: patent publication US20060281807A1, “Quassinoid compositions for the treatment of cancer and other proliferative diseases” (Tapestry Pharmaceuticals, Inc., priority 2005, published 2006)
Converted amounts (≈) assume the structure as drawn. “And” between values parts separate entries of the source, which are not always exact repeats. Equal entries are not always repeated. Where two headings read alike, the source gives them in different places.

Legend:
murine CFU-GM = assay: Disk diffusion assay, zone of inhibition, murine CFU-GM; assay type: cell-based; conditions: 1 mg/mL
L1210 (murine leukemia) = assay: Disk diffusion assay, zone of inhibition, L1210; assay type: cell-based; conditions: 1 mg/mL
[1] = tested on: HCT116 (human colorectal carcinoma); assay: Disk diffusion assay, zone of inhibition, HCT116; assay type: cell-based; conditions: 1 mg/mL
[2] = Maximum tolerated dose in mice; conditions: for MTD / MTD at 30 days: mouse, in vivo, iv
Experimental: Formulations containing 15-O-(3′-hydroxy-3′-isopropyl-4′-methylpentanoyl)bruceolide, 15-(3-isopropyl-4-methyl-2-pentenoyl)-bruceolide, and, for comparative purposes, bruceantin, or peninsularinone were prepared by solubilizing each compound in up to 100 mg/mL of ethanol. These solutions were diluted 1:1 with a stabilizer (Cremophor/propylene glycol). The solutions were then diluted in saline (1:10 minimum).
The maximum tolerated dose (MTD) was determined by a two-stage experiment. In the first stage, between 1 and 10 mg/mL of the formulation was prepared as described above. Next, 0.25 mL of the formulation was injected intravenously into one 20 gram mouse (0.75 mg/mouse). If the animal died within 30 days of injection, a series of subsequent 2-fold dilutions were administered to individual mice until an MTD was defined. […] The second stage of the study involved increasing the number of mice per dose to four, and retesting four dilutions that bracket the MTD from the individual mouse study. The four dilutions were the MTD, a dosage twice the MTD, a dosage ½ the MTD, and a dosage ¼ the MTD.

[3] = tested on: Colon 38 (murine colon adenocarcinoma); assay: Disk diffusion assay, zone of inhibition, Colon 38; zone differentials, potency and product; assay type: cell-based; design: key to C38ΔL1210 / C38ΔCFU: difference of zone of inhibition values, in zone units; conditions: for zone of inhibition, Colon 38: 1 mg/mL; for Sum: C38ΔL1210 plus C38ΔCFU; for C38ΔL1210: Colon38 vs L1210 leukemia
Outline: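 Dissociated Colon 38 cells were plated in soft agar over a hard agar layer; 15 µl of compound dilution dried on a 6.5 mm disk was placed on the plate, and incubation ran 7–10 days. Inhibition zone was measured from disk edge to normal colonies, with the disk diameter = 200 units. Potency = dilution giving 500 units; the product multiplies it by the differentials against L1210 or CFU-GM.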

HCT-116 cells = assay: HCT-116 cytotoxicity, viable cell count by trypan blue; assay type: cell-based, human; conditions: for IC90/IC50: HCT-116; for IC50 / IC90: Homo sapiens
human CFU-GM = assay type: cell-based; conditions: 1 mg/mL
Experimental: A disk diffusion assay was performed to define the differential cell killing ability of 15-O-(3′-hydroxy-3′-isopropyl-4′-methylpentanoyl)bruceolide. Seven cell types were assayed: L1210 (ATCC CCL-219) (murine leukemia), CCRF-CEM (ATCC CCL-119) (human leukemia), Colon 38 (murine colon adenocarcinoma), HCT116 (ATCC CCL-247) (human colorectal carcinoma), H125 (human lung carcinoma). The murine and human granulocyte/macrophage progenitor cell line (CFU-GM), served as controls.
For CFU-GM cells, the femoral marrow of BD2F1 mice was flushed with MEM alpha (2 mL per femur). The cells were passed through an 18 gauge needle twice and the monodispersed suspension was counted. A total of 1.5×10^6 cells were plated in 3 mL of 0.3% agar with the addition of 10% L cell conditioned media, which provided colony stimulating factor, in MEM-alpha plus 10% BCS. For human CFU-GM, the cells were obtained from Poietic Technologies, Inc. (Gaithersburg, Md.) and washed twice with PBS before being titered and added to the agar mixture. The same cell number, culture conditions, and conditioning factors used with respect to the murine CFU-GM cells were used with the human cells, except that the cultures were assessed after 10 days of incubation.
A 15 μl sample of each compound was dropped onto a 6.5 mm disk (Baxter filter disks). The disks were allowed to dry overnight and then placed close to the edge of a petri dish. Depending upon the cell type, the dishes were incubated for 7 to 10 days, and examined by an inverted stereo-microscope (10×) for measurement of the zone of inhibition. The zone of inhibition was measured from the edge of the filter disk to the beginning of normal-sized colony formation. The diameter of the filter disk, 6.5 mm, was arbitrarily taken as a zone of 200 units. Compounds that were selective for killing solid tumors, as compared to leukemia or normal cells (“solid tumor selective”) were defined as those compounds which produced a difference in zones between solid tumor cells and either normal or leukemia cells of at least 250 units. The results of this analysis are set forth in Table 4, which illustrates the relative diameters of the zones of inhibition by various drugs on the growth of the respective cell types at various drug dilutions.

[4] = tested on: H125 (human lung carcinoma); assay: Disk diffusion assay, zone of inhibition, H125; assay type: cell-based; conditions: 1 mg/mL
[5] = tested on: CCRF-CEM (human leukemia); assay: Disk diffusion assay, zone of inhibition, CCRF-CEM; assay type: cell-based; conditions: 1 mg/mL
[6] = no dilution, 15 μl on disk, 6.5 mm = 200 units
[7] = intravenous, first stage, one mouse per dose
[8] = intravenous, second stage, four mice per dose
[9] = maximum tolerated dose, Dose - 1 Mouse, first stage, one mouse per dose
[10] = maximum tolerated dose, Dose - 4 Mice, second stage, four mice per dose
[11] = difference between zone of inhibition values

SMILES	zone of inhibition, murine CFU-GM (murine CFU-GM; dilution 1/10) [units]	zone of inhibition, murine CFU-GM (murine CFU-GM; dilution 1/100)	zone of inhibition, murine CFU-GM (murine CFU-GM; dilution 1/1000) [units]	zone of inhibition, L1210 (L1210 (murine leukemia); dilution 1/10) [units]	zone of inhibition, L1210 (L1210 (murine leukemia); dilution 1/100)	zone of inhibition, L1210 (L1210 (murine leukemia); [6]) [units]	zone of inhibition, H-116 ([1]; dilution 1/10)	zone of inhibition, H-116 ([1]; dilution 1/1000) [units]	zone of inhibition, H-116 [1, 6] [units]	maximum tolerated dose, Dose - 1 Mouse [2, 7] [mg/mouse]	maximum tolerated dose, Dose - 4 Mice [2, 8] [mg/mouse]	zone of inhibition, Colon 38 ([3]; dilution 1/10) [units]	zone of inhibition, Colon 38 ([3]; dilution 1/100)	zone of inhibition, Colon 38 ([3]; dilution 1/1000)	zone of inhibition, Colon 38 [3, 6] [units]	Sum [3]	C38ΔL1210 [3, 11]	IC90/IC50 (HCT-116 cells)	zone of inhibition, human CFU-GM (human CFU-GM; dilution 1/10) [units]	zone of inhibition, human CFU-GM (human CFU-GM; dilution 1/100) [units]	also measured
COC(=O)[C@@]12OC[C@@]34C1[C@@H](OC(=O)CC(O)(C(C)C)C(C)C)C(=O)O[C@@H]3C[C@H]1C(C)=C(O)C(=O)C[C@]1(C)[C@H]4[C@@H](O)[C@@H]2O (some centres unmarked) [15-O-(3′-hydroxy-3′-isopropyl-4′-methylpentanoyl)bruceolide]	50	300 units and 200 units	0	550	200 units	1000	1000 units and 900 units	0	>1000	3.2	1.5	>1000	750 units and 600 units and 500 units	400 units and 250 units	>1000	750 and 1450	400 and 550	35	900	600	zone of inhibition, murine CFU-GM (murine CFU-GM; dilution 1/400): 100 units; zone of inhibition, L1210 (L1210 (murine leukemia); dilution 1/400): 0 units; mice survived the duration of the experiment ([2]; dose of either 1.5 or 0.75 mg/mouse, intravenous (FIG. 6)): 100%; MTD ([2]; MTD, mice): 60 to 65 mg/kg/day; MTD [2, 9]: 109 mg/kg; MTD [2, 10]: 60 mg/kg; zone of inhibition, Colon 38 ([3]; dilution 1/400): 300 units; IC50 (HCT-116 cells; 72 h, HCT-116, 3 days with compound, viable cells, by interpolation, read-out: IC50): 1.9 ng/mL (≈ 0.0032 µM); IC90 (HCT-116 cells; 72 h, HCT-116, 3 days with compound, viable cells, by interpolation, read-out: IC90): 67 ng/mL (≈ 0.113 µM); zone of inhibition, H-125 M ([4]; dilution 1/1000): 0 units; zone of inhibition, H-125 M [4, 6]: >1000 units; zone of inhibition, CEM ([5]; dilution 1/10): 650 units and 700 units; zone of inhibition, CEM ([5]; dilution 1/100): 100 units and 150 units
COC(=O)[C@@]12OC[C@@]34C1[C@@H](OC(=O)C=C(C(C)C)C(C)C)C(=O)O[C@@H]3C[C@H]1C(C)=C(O)C(=O)C[C@]1(C)[C@H]4[C@@H](O)[C@@H]2O (some centres unmarked) [15-O-(3′-isopropyl-4′-methyl-2′-pentenoyl)-bruceolide]	650	350 units and 600 units	0	1000	650 units and 600 units	>1000	750 units	0	>1000	0.05	0.25	>1000	850 units and 650 units	450 units	>1000	750	300	7	>1000	550	zone of inhibition, L1210 (L1210 (murine leukemia); dilution 1/1000): 150 units; zone of inhibition, H-116 ([1]; dilution 1/100): 100 units; mice survived the duration of the experiment ([2]; dose of 0.1, 0.075, 0.05, or 0.025 mg/mouse, intravenous): 100%; MTD at 30 days [2, 9]: 2.9 mg/kg; MTD at 30 days [2, 10]: 4 mg/kg; C38ΔCFU ([3]; difference between zone of inhibition values, Colon38 vs normal cell CFU-GM): 450; Product ([3]; potency multiplied by zone differentials): 4500; IC50 (HCT-116 cells; HCT-116, 72 h): 1.5 ng/mL (≈ 0.0026 µM); IC90 (HCT-116 cells; HCT-116, 72 h): 10 ng/mL (≈ 0.0173 µM); zone of inhibition, H-125 M ([4]; dilution 1/10): 1100 units; zone of inhibition, H-125 M ([4]; dilution 1/100): 500 units; zone of inhibition, H-125 M ([4]; dilution 1/1000): 100 units; zone of inhibition, H-125 M [4, 6]: >1000 units; zone of inhibition, CEM ([5]; dilution 1/10): 800 units; zone of inhibition, CEM ([5]; dilution 1/100): 400 units
